Measurements: the NIST ThermoML archive (doi:10.1007/s10765-005-8591-6)

Test: xn = mol fraction of the nth substance listed
Conditions: Fluid (supercritical or subcritical phases), Constant-volume piezometry

FC(F)C(F)(F)F [pentafluoroethane] + FCF
Conditions	mass density [kg/m3]
258.15 K, 2177 kPa, x2 = 0.3004	1342.88
258.16 K, 1554.4 kPa, x2 = 0.4995	1294.18
258.16 K, 4595.6 kPa, x2 = 0	1403.78
259.14 K, 2658.3 kPa, x2 = 0.6995	1234.39
259.15 K, 2403.7 kPa, x2 = 0.4995	1294.07
259.15 K, 2913.1 kPa, x2 = 0.3004	1342.77
261.15 K, 3061.1 kPa, x2 = 0.8997	1151.87
261.15 K, 4118.3 kPa, x2 = 0.4995	1293.85
261.15 K, 4474.9 kPa, x2 = 0.3004	1342.56
261.15 K, 4516.2 kPa, x2 = 0.6995	1234.17
261.15 K, 6579.8 kPa, x2 = 0	1403.47
262.14 K, 4056 kPa, x2 = 0.8997	1151.77
262.14 K, 7284.6 kPa, x2 = 0	1403.36
263.15 K, 5058.3 kPa, x2 = 0.8997	1151.67
263.15 K, 5848.5 kPa, x2 = 0.4995	1293.64
263.15 K, 6106.3 kPa, x2 = 0.3004	1342.34
263.15 K, 6362.9 kPa, x2 = 0.6995	1233.97
264.15 K, 3235.2 kPa, x2 = 0.098	1362.36
264.15 K, 6053.5 kPa, x2 = 0.8997	1151.57
264.15 K, 7288.1 kPa, x2 = 0.6995	1233.88
265.15 K, 7050.9 kPa, x2 = 0.8997	1151.47
265.15 K, 7767 kPa, x2 = 0.3004	1342.13
265.15 K, 8213.6 kPa, x2 = 0.6995	1233.78
265.17 K, 7585.9 kPa, x2 = 0.4995	1293.43
267.15 K, 9040.9 kPa, x2 = 0.8997	1151.28
267.15 K, 9274.4 kPa, x2 = 0.4995	1293.23
267.15 K, 10051 kPa, x2 = 0.6995	1233.58
267.16 K, 5301.3 kPa, x2 = 0.098	1362.04
267.16 K, 9382.9 kPa, x2 = 0.3004	1341.92
267.16 K, 10809 kPa, x2 = 0	1402.84
268.15 K, 10032 kPa, x2 = 0.8997	1151.19
268.2 K, 10152 kPa, x2 = 0.4995	1293.13
269.14 K, 10950 kPa, x2 = 0.4995	1293.04
269.15 K, 10983 kPa, x2 = 0.3004	1341.71
269.15 K, 11894 kPa, x2 = 0.6995	1233.38
269.16 K, 11031 kPa, x2 = 0.8997	1151.09
270.15 K, 7414.4 kPa, x2 = 0.098	1361.73
270.19 K, 13003 kPa, x2 = 0	1402.53
271.13 K, 12647 kPa, x2 = 0.4995	1292.84
271.15 K, 13008 kPa, x2 = 0.8997	1150.92
271.16 K, 13740 kPa, x2 = 0.6995	1233.2
273.08 K, 14311 kPa, x2 = 0.4995	1292.65
273.15 K, 9532.7 kPa, x2 = 0.098	1361.42
273.15 K, 14255 kPa, x2 = 0.3004	1341.32
273.15 K, 14990 kPa, x2 = 0.8997	1150.74
273.15 K, 15076 kPa, x2 = 0	1402.23
273.16 K, 15579 kPa, x2 = 0.6995	1233.01
274.14 K, 15969 kPa, x2 = 0.8997	1150.66
274.16 K, 16499 kPa, x2 = 0.6995	1232.92
275.13 K, 16066 kPa, x2 = 0.4995	1292.46
275.15 K, 16572 kPa, x2 = 0	1402.04
282.15 K, 15978 kPa, x2 = 0.098	1360.53
313.13 K, 2217.5 kPa, x2 = 0.3003	1050.39
313.15 K, 2820.6 kPa, x2 = 0.1	1097.54
318.14 K, 2959 kPa, x2 = 0.8992	900.95
318.15 K, 2921.8 kPa, x2 = 0.6998	949.66
318.15 K, 4528.5 kPa, x2 = 0.1	1097.17
318.18 K, 3901.3 kPa, x2 = 0.3003	1050.03
318.21 K, 3341.8 kPa, x2 = 0.4993	1000.3
323.13 K, 5212.3 kPa, x2 = 0.8992	900.63
323.14 K, 4867 kPa, x2 = 0.6998	949.34
323.15 K, 5129.3 kPa, x2 = 0.4993	999.96
323.16 K, 5645.9 kPa, x2 = 0.3003	1049.68
323.16 K, 6252.9 kPa, x2 = 0.1	1096.79
328.14 K, 6839.9 kPa, x2 = 0.6998	949.01
328.15 K, 7408.9 kPa, x2 = 0.3003	1049.33
328.15 K, 7986 kPa, x2 = 0.1	1096.43
328.16 K, 6969.7 kPa, x2 = 0.4993	999.62
328.16 K, 7509.2 kPa, x2 = 0.8992	900.31
333.13 K, 8834 kPa, x2 = 0.6998	948.69
333.13 K, 9793.4 kPa, x2 = 0.8992	900.01
333.14 K, 9188.4 kPa, x2 = 0.3003	1048.98
333.15 K, 8814.5 kPa, x2 = 0.4993	999.29
333.17 K, 9741.9 kPa, x2 = 0.1	1096.06
338.12 K, 12100 kPa, x2 = 0.8992	899.7
338.13 K, 10843 kPa, x2 = 0.6998	948.37
338.13 K, 10979 kPa, x2 = 0.3003	1048.63
338.14 K, 11489 kPa, x2 = 0.1	1095.7
338.19 K, 10690 kPa, x2 = 0.4993	998.95
343.12 K, 12860 kPa, x2 = 0.6998	948.05
343.12 K, 14419 kPa, x2 = 0.8992	899.4
343.13 K, 12772 kPa, x2 = 0.3003	1048.29
343.13 K, 13247 kPa, x2 = 0.1	1095.35
343.18 K, 12550 kPa, x2 = 0.4993	998.62
348.12 K, 14887 kPa, x2 = 0.6998	947.74
348.13 K, 16746 kPa, x2 = 0.8992	899.1
348.16 K, 14423 kPa, x2 = 0.4993	998.3
348.16 K, 15022 kPa, x2 = 0.1	1094.99
348.17 K, 14592 kPa, x2 = 0.3003	1047.95
353.11 K, 16917 kPa, x2 = 0.6998	947.43
353.13 K, 16290 kPa, x2 = 0.4993	997.98
353.14 K, 16386 kPa, x2 = 0.3003	1047.61
353.14 K, 16782 kPa, x2 = 0.1	1094.64
354.13 K, 16744 kPa, x2 = 0.3003	1047.54
354.15 K, 16672 kPa, x2 = 0.4993	997.91
